According to patent US20220016127A1, “COMPOSITIONS AND METHODS FOR INDUCING APPENDAGE AND LIMB REGENERATION” (priority 2020, published 2022):
Where “and” joins values, the source holds several entries; their conditions need not be identical. Equal values may be shown once.

Tests used:
Aurelia ephyra [1] = assay: Arm regeneration induction in amputated Aurelia ephyrae; assay type: in vivo, Aurelia aurita; settings: for effect on arm regeneration / regeneration frequency (in words): amputated ephyrae, factor added to artificial seawater upon amputation; for Percent regeneration, Average: average over experiments; for Effect size, Length of arm regenerates: Response Ratio treated vs control (Table 7); for Average effect size: Risk Ratio of regeneration frequency, across experiments (Table 4); for Average effect size / Odds Ratio: treated vs control; for Effect size, % ephyrae regenerating / Effect size, % ephyrae regenerating >1 arm / Effect size, % ephyrae regenerating rhopalia: Risk Ratio treated vs control (Table 7); for Odds Ratio: odds of regeneration, across experiments (Table 6)
Experimental: Amputation. Strobilated ephyrae were fed daily with rotifers (Brachionus plicatilis) until amputation time. 2-3 days old ephyrae were anesthetized in 400 μM menthol and amputated using a razor blade mounted on an x-acto knife handle. After amputation, ephyrae were let to recover in bubbler cones (FIG. 7). Regeneration was assessed at various times until 1-2 weeks after amputation, before onset of maturation to medusa.
Inducing regeneration. Experimental setup. 0.5-1 L sand settling cones were repurposed as jellyfish aquaria (Nalgene Imhoff; FIG. 7). Each cone was equipped with an airline from a Tetra Whisper air pump 100 to create a gentle vertical current (˜1 bubble/sec, see FIG. 30). The conical geometry eliminates stagnant spots, where the ephyrae could get stuck. In this “bubbler cone” setup, the ephyrae were continually in water current either in the upward air bubble-generated current or the downward self-generated current. 500 mL artificial seawater and 30 ephyrae were placed in each cone to avoid crowding and fouling. Artificial seawater was changed every week. Nutrients. In some embodiments, the food amount given here only serves as an initial estimate; percentage of regeneration can easily vary with lab culture condition (e.g., polyp and rotifer size, age, health), as well as subject to variation across polyps and strobilation batches (see Table 2A-Table 2C for a sense of the variation). Amputated ephyrae were fed daily with rotifers. The number of rotifers administered daily was estimated using a 6-well plate fitted with STEMgrid™ (the same principle as using a hemocytometer). In some embodiments, low food is ˜100-200 rotifers/ephyra, whereas high food is ˜400 rotifers/ephyra. Insulin. Human recombinant insulin was administered to the amputated ephyrae at 500 nM immediately after amputation (by mixing in the artificial seawater). If the experiment proceeds longer than a week, fresh insulin was added at the one-week time point. Hypoxia. Nitrogen or argon flow, instead of ambient air flow, was introduced via the airline into the bubbler cone immediately after amputation, and maintained throughout the duration of the experiment. The nitrogen flow was adjusted to achieve 50% reduction in the dissolved oxygen level.
Inhibiting or activating mTOR. 1 nM Sapanisertib (Selleck Chemicals S2811), 1 μM A769662 (Santa Cruz sc-203790), or 100 μM L-leucine (Sigma L1002, the cell-permeable methyl ester hydrochloride form) was administered into the artificial seawater right after amputation, and refreshed weekly. Statistical analysis. Percent regeneration was first normalized to the control (for sapanisertib and A769662, the HF+DMSO control; for leucine data the LF control), and then the student's t-test (two tailed, equal variances) in Excel was used to test the null hypothesis that the fold change in % regeneration is zero. Drosophila melanogaster
Amputation. Strobilated ephyrae were fed daily with rotifers (Brachionus plicatilis, Reed Mariculture) until amputation time. 2-3 days old ephyrae were anesthetized in 400 μM menthol and amputated using a razor blade mounted on an x-acto knife handle. After amputation, ephyrae were let to recover in bubbler cones (FIG. 21). Regeneration was assessed at various times for 1-2 weeks after amputation, before onset of maturation to medusa. Experiment in the original habitat. The polyp population in the study arose from parental polyps collected off the coast of Long Beach, Calif. (33° 46′04.2″N 118° 07′44.2″W, GPS: 33.7678376,−118.1289559). Ephyrae were amputated in location and immediately after submersed in the ocean. For submerging the amputated ephyrae in the ocean, a two-layered aquarium was custom-built. Ephyrae were placed in plastic canisters with a 7 cm diameter hole cut in the lid and covered with a 250 μm plastic screen. The canisters were then placed in a thick plastic tank fitted with a 500 μm plastic screen on top. […]

Drosophila limb = assay: Tibia (hindlimb) regeneration in amputated adult Drosophila; assay type: in vivo, Drosophila melanogaster; settings: adult flies, fed in food
Experimental: Amputation. Adult flies 2-7 days after eclosion were anesthetized with CO2. Amputations were performed under a dissection microscope using a spring scissors (Fine Science Tools, 91500-09) and superfine dissecting forceps (VWR, 82027-402). Recovering Drosophila were fed with standard fly food (control) or standard fly food supplemented with 2 mM L-leucine (Sigma L8000), 2 mM L-Glutamine (Sigma G3126), and 0.1 mg/mL insulin (MP Biomedicals 0219390080) or other molecular factors. To introduce molecular factors into fly food, standard fly food was microwaved in short pulses, such that the topmost layer of the food was liquified. Molecular factors in aqueous medium were then pipetted into this liquified layer. Food was allowed to re-set at 4° C. for at least 20 minutes. New food was prepared fresh every 2 days throughout the course of the 2-week experiment. Regeneration was assessed at 3, 6, 9 and 14 days post amputation.
Drosophila were amputated on the hindlimb, across the fourth segment of the leg, the tibia (FIG. 16A-FIG. 16C). The amputation removed the distal half to third of the tibia and all tarsal segments. […] Regeneration was assessed between 7-21 dpa as the presence of a regrown tibia with a reformed distal joint (FIG. 16E). […]

Aurelia ephyra [2] = assay: Body size (growth) of amputated Aurelia ephyrae; assay type: in vivo, Aurelia aurita; settings: Response Ratio across experiments (Table 8)
Experimental: Two-to-three-day-old ephyrae were anesthetized in 400 μM menthol and amputated using a razor blade mounted on an x-acto knife handle. Amputated ephyrae were let to recover in 1 L sand settling cones (Nalgene Imhoff, FIG. 21). In each experiment, ˜90 animals were amputated for each condition (e.g., 90 animals for control and 90 animals for treated). Because of the varying baseline across strobilation batches, each experiment was repeated across 2-5 strobilation batches (biological replicates). These sample sizes were chosen to obtain a 95% confidence level on the treatment effect (statistical analysis described below). Hundreds of experimental animals were first amputated, mixed together in a beaker, and then randomly allocated to the control or treatment groups. Regeneration was assessed at various times for 1-2 weeks after amputation, before onset of maturation to medusa. All data were included in the analysis.
For measurements of arm length and body size, the datasets are in the form of continuous variables. For such data, the commonly used effect size is the Response Ratio (R, EQUATION 3),
R evaluates the proportionate change that results from a treatment, and is the meaningful effect size to use when the outcome of a treatment is measured on a physical scale, e.g., length or area (as opposed to arbitrary scale, e.g., happiness level). […]

Aurelia ephyra [3] = assay: Arm regeneration induction in amputated Aurelia ephyrae; assay type: in vivo, Aurelia aurita; settings: low food (LF) background; single experiments; arm regeneration 1-2 weeks after amputation; insulin 500 nM, L-leucine 100 μM / 100 mM, nitrogen flow ~50% reduction in oxygen
[4] = high food (HF) background, single experiments, insulin 500 nM, 1 nM sapanisertib, 1 μM A769662 (controls HF + DMSO), nitrogen or argon flow ~50% reduction in oxygen

## N#Cc1c(O)c2c(-c3ccc(-c4ccccc4O)cc3)csc2[nH]c1=O [A769662, reference compound]
Aurelia ephyra [1]
  effect on arm regeneration / regeneration frequency (in words): inhibited arm regeneration
Aurelia ephyra [1]; high food (HF) background
  Percent regeneration, Average: 8.3%
Aurelia ephyra [1]; [4]
  Percent regeneration: 9.8% and 7.0%

## CC(C)C[C@H](N)C(=O)O [Leucine, L-leucine]
Aurelia ephyra [1]
  Effect size, Length of arm regenerates: 1.7
  Average effect size: 4.1
  Effect size, % ephyrae regenerating: 4.1
  Effect size, % ephyrae regenerating >1 arm: 6.0
  Effect size, % ephyrae regenerating rhopalia: 6.1
  effect on arm regeneration / regeneration frequency (in words): induced arm regeneration
  Odds Ratio: 5.8
Aurelia ephyra [1]; low food (LF) background
  Percent regeneration, Average: 23.0%
Drosophila limb
  effect on tibia regrowth (in words): can by itself effect tibia regrowth
Aurelia ephyra [2]
  Ave. body diameter treatment/control: 1.1

## CC(C)n1nc(-c2ccc3oc(N)nc3c2)c2c(N)ncnc21 [Sap, Sapanisertib, reference compound]
Aurelia ephyra [1]; high food (HF) background
  Percent regeneration, Average: 11.5%

## [Ar] [argon]
Aurelia ephyra [1]
  effect on arm regeneration / regeneration frequency (in words): dramatically induced regeneration
Aurelia ephyra [1]; [4]
  Percent regeneration: 72.5%

## N#N [nitrogen]
Aurelia ephyra [1]; LF* background, single experiment, nitrogen flow
  Percent regeneration: 28.4%
Aurelia ephyra [1]; high food (HF) background
  Percent regeneration, Average: 69.3%
Aurelia ephyra [1]; [4]
  Percent regeneration: 82.1% and 56.9%
Aurelia ephyra [1]; low food (LF) background
  Percent regeneration, Average: 30.6%
Aurelia ephyra [3]
  Percent regeneration: 32.5%

## Insulin: human recombinant insulin (Sigma I0908), 500 nM in artificial seawater
Aurelia ephyra [1]
  Effect size, Length of arm regenerates: 1.2
  Average effect size: 2.4
  Effect size, % ephyrae regenerating: 2.4
  Effect size, % ephyrae regenerating >1 arm: 1.9
  Effect size, % ephyrae regenerating rhopalia: 1.3
  Odds Ratio: 5.0
Aurelia ephyra [1]; [4]
  Percent regeneration: 36.4%
Aurelia ephyra [3]
  Percent regeneration: 25%
Aurelia ephyra [2]
  Ave. body diameter treatment/control: 1.4

## Tgfb: protein tested in the screen (hTGF-β1, Peprotech 100-21)
Aurelia ephyra [1]
  effect on arm regeneration / regeneration frequency (in words): no effect
